Measurements from ChEMBL document CHEMBL3585305, “Structure-Based Design and Optimization of Multitarget-Directed 2H-Chromen-2-one Derivatives as Potent Inhibitors of Monoamine Oxidase B and Cholinesterases” (J Med Chem, 2015).
Active and inactive are the calls of the source. No cut-off for these calls is given here.

Assays:
[1] = target: T1, Acetylcholinesterase (Electrophorus electricus, UniProt O42275); test: Inhibition of electric eel AChE by spectrophotometric Ellman's method
[2] = target: T2, Amine oxidase [flavin-containing] B (Homo sapiens, UniProt P27338)
T2 sequence (P27338 whole entry): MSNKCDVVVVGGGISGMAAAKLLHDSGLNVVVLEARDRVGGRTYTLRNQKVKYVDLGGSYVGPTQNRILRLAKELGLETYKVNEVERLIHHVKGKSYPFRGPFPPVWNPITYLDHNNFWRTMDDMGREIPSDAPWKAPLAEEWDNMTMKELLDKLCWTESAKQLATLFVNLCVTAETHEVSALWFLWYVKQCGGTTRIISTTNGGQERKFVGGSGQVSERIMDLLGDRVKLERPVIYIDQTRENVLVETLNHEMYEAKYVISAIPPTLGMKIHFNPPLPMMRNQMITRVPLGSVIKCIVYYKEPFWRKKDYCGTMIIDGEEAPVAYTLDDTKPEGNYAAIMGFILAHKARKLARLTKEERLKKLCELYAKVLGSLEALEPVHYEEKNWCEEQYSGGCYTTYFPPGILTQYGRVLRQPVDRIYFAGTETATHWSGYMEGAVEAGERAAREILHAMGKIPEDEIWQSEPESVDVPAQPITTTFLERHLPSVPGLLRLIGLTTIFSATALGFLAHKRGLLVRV
Description: Inhibition of human recombinant MAO-B using kynuramine substrate by spectrophotometric assay

[3] = target: T3, Amine oxidase [flavin-containing] B (Rattus norvegicus, UniProt P19643); test: Inhibition of rat brain MAO-B using kynuramine substrate […] by spectrophotometric assay
T3 sequence (P19643 whole entry): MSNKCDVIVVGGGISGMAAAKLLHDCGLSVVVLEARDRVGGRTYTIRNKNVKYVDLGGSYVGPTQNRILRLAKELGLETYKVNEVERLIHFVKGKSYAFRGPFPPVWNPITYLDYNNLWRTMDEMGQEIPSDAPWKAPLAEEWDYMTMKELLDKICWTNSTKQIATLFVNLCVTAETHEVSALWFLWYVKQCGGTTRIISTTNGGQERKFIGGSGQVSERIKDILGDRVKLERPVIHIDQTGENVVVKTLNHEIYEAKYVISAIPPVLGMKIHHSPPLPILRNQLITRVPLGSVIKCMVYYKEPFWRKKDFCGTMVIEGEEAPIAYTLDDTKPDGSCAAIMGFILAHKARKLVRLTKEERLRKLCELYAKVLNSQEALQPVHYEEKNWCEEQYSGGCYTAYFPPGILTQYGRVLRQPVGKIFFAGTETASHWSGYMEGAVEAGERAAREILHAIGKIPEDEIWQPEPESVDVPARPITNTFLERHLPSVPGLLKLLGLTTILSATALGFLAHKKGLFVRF

[4] = target: T4, Amine oxidase [flavin-containing] A (Rattus norvegicus, UniProt P21396); test: Inhibition of rat brain MAO-A using kynuramine substrate […] at 10 uM by spectrophotometric assay
T4 sequence (P21396 whole entry): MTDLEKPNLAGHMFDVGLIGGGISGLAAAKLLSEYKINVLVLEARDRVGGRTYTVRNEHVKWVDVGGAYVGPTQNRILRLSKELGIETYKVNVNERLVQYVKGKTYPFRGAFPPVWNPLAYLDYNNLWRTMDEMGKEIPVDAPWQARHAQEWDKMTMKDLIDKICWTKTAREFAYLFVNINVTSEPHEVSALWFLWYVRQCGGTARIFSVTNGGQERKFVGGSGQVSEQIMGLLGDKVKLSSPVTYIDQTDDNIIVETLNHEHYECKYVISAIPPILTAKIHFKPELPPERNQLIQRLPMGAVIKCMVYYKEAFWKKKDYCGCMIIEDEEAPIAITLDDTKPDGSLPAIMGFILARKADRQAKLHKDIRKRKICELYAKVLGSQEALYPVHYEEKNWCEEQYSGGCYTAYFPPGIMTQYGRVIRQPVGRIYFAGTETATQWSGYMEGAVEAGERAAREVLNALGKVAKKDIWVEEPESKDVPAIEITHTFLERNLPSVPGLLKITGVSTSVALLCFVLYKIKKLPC

[5] = target: T5, Cholinesterase (Homo sapiens, UniProt P06276); test: Inhibition of human serum BuChE at 10 uM by spectrophotometric Ellman's method
[6] = target: Acetylcholinesterase (Homo sapiens, UniProt P22303); test: Inhibition of human recombinant AChE by spectrophotometric Ellman's method
[7] = target: Cholinesterase (Equus caballus, UniProt P81908); test: Inhibition of equine serum BuChE by spectrophotometric Ellman's method
[8] = target: T6, Amine oxidase [flavin-containing] A (Homo sapiens, UniProt P21397); test: Inhibition of human recombinant MAO-A using kynuramine substrate by spectrophotometric assay
T6 sequence (P21397 whole entry): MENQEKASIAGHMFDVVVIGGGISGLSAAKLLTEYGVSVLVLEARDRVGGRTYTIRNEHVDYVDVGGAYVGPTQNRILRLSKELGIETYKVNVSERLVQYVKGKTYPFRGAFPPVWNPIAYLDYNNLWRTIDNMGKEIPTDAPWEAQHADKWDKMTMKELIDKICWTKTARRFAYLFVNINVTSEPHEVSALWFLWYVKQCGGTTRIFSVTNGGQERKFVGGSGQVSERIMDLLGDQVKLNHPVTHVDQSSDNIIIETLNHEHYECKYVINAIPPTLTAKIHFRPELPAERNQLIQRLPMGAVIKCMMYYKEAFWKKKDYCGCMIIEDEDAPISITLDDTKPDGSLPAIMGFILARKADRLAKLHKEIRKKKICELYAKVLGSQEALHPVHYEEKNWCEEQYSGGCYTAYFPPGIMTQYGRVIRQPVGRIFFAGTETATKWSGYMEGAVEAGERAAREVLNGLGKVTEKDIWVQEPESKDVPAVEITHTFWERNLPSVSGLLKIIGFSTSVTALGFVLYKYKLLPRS

[9] = target: T3, Amine oxidase [flavin-containing] B; test: Inhibition of rat brain MAO-B using kynuramine substrate […] at 10 uM by spectrophotometric assay
[10] = species on record: Rattus norvegicus; test: Selectivity index, ratio of IC50 for rat brain MAO-A to IC50 for rat brain MAO-B
[11] = target: T4, Amine oxidase [flavin-containing] A; test: Inhibition of rat brain MAO-A using kynuramine substrate […] by spectrophotometric assay
[12] = target: T6, Amine oxidase [flavin-containing] A; test: Inhibition of human recombinant MAO-A using kynuramine substrate at 10 uM by spectrophotometric assay
[13] = target: Cholinesterase (Equus caballus) (UniProt P81908); test: Inhibition of equine serum BuChE at 10 uM by spectrophotometric Ellman's method
[14] = test system: MDR1; test: Apparent permeability from apical to basolateral side in MDCK2 cells expressing MDR1 at 200 ug/ml by UV-visible spectroscopy; type: ADME, cell-based, Canis lupus familiaris, MDCK-II; settings: dog, MDCK-MDR1
[15] = test system: MDR1; test: Apparent permeability from basolateral to apical side in MDCK2 cells expressing MDR1 at 200 ug/ml by UV-visible spectroscopy; type: ADME, cell-based, Canis lupus familiaris, MDCK-II; settings: dog, MDCK-MDR1
[16] = test system: SH-SY5Y; test: Neuroprotective activity in human SH-SY5Y cells assessed as inhibition H2O2-induced reduction of cell survival at 1 uM after 24 hrs by MTT assay; type: functional, cell-based
[17] = test system: MDR1; test: Efflux ratio of apparent permeability from basolateral to apical side to apical to basolateral side in MDCK2 cells expressing MDR1 at 200 ug/ml by UV-visible spectroscopy; type: ADME, cell-based, Canis lupus familiaris, MDCK-II; settings: dog, MDCK-MDR1
[18] = test system: SH-SY5Y; test: Neuroprotective activity in human SH-SY5Y cells assessed as inhibition H2O2-induced reduction of cell survival at 10 uM after 24 hrs by MTT assay; type: functional, cell-based
[19] = target: T2, Amine oxidase [flavin-containing] B; test: Inhibition of human recombinant MAO-B using kynuramine substrate at 10 uM by spectrophotometric assay
[20] = target: T6, Amine oxidase [flavin-containing] A; test: Inhibition of human recombinant MAO-A using kynuramine substrate at 4 uM by spectrophotometric assay
[21] = target: T5, Cholinesterase; test: Inhibition of human serum BuChE by spectrophotometric Ellman's method
[22] = target: T1, Acetylcholinesterase; test: Mixed type inhibition of electric eel AChE by Lineweaver-Burk plot

Sequence of Acetylcholinesterase (Homo sapiens, UniProt P22303) (P22303 whole entry): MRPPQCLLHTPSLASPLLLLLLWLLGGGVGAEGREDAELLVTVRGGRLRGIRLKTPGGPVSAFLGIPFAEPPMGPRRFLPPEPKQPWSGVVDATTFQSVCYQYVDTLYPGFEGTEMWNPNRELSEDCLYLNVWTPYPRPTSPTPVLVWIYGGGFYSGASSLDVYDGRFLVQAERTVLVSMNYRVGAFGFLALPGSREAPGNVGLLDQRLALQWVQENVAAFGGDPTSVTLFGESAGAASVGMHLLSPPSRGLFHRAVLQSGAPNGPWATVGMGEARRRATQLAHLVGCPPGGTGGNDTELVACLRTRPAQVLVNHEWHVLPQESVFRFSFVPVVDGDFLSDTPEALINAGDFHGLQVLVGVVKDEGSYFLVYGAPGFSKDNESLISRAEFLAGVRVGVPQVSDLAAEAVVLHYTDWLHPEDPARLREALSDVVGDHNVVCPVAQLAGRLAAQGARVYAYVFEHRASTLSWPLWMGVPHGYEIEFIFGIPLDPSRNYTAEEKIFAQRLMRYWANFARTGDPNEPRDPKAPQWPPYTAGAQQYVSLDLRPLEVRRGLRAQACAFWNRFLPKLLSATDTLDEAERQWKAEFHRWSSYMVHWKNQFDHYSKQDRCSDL
Sequence of Cholinesterase (Equus caballus, UniProt P81908) (P81908 whole entry): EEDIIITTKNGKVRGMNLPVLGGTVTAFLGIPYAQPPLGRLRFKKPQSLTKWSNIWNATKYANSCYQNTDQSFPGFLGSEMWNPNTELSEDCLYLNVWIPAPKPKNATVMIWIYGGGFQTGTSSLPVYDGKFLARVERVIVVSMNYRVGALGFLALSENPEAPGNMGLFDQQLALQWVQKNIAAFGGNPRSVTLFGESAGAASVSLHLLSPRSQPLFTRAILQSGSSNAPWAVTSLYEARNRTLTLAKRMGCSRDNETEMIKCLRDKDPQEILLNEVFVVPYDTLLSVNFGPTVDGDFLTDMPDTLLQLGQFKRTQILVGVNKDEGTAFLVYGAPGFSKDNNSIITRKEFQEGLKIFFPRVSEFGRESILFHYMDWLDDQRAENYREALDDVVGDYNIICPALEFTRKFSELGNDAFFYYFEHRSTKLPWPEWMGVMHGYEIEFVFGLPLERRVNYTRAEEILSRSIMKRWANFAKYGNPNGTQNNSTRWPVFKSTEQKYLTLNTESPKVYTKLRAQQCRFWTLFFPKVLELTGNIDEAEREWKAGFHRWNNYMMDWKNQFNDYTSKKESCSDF
T1 sequence (O42275 whole entry): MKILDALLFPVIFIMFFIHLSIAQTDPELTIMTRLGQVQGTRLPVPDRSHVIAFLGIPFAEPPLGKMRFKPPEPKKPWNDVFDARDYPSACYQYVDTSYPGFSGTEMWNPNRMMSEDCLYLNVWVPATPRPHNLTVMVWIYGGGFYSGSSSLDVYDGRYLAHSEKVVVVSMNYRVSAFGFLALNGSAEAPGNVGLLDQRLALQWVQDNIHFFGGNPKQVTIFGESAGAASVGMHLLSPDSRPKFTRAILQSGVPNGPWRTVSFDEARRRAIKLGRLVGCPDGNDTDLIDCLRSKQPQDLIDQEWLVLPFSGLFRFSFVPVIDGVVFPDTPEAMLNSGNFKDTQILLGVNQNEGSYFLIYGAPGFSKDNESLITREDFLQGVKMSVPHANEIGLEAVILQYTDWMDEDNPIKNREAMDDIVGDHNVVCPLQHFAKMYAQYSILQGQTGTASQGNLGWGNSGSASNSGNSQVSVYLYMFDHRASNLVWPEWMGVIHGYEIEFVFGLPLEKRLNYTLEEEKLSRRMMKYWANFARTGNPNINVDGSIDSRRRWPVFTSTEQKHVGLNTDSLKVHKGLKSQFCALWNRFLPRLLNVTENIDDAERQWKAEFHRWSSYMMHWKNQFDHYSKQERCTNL
T5 sequence (P06276 whole entry): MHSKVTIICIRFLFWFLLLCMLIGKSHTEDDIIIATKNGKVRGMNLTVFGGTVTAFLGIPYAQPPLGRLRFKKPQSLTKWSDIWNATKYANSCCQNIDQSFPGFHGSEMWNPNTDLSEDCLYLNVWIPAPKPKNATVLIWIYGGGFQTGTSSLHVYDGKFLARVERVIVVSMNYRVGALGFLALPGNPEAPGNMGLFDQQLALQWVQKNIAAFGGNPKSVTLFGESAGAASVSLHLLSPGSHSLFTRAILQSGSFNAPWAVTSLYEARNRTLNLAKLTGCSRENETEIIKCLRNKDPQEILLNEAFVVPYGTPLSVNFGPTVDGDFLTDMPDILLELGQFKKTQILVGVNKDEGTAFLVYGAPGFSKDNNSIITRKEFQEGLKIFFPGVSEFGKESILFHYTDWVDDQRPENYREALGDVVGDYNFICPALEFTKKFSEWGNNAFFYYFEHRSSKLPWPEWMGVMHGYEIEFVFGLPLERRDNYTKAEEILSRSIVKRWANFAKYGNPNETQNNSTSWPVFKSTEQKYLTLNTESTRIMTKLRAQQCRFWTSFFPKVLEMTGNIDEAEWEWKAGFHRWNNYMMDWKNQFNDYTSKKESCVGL
Sequence of Cholinesterase (Equus caballus) (P81908 whole entry): as the sequence (P81908 whole entry) above

Row | SMILES | IC50 [1] [µM] | IC50 [2] [µM] | IC50 [3] [µM] | inhibition at 10 µM [4] [%] | IC50 [6] [µM] | IC50 [7] [µM] | IC50 [8] [µM] | inhibition at 10 µM [12] [%] | also measured
1 | Cc1c(C)c2ccc(OCc3ccc(CN(C)Cc4ccccc4)cc3)cc2oc1=O | 0.1 | 0.053 | 1.2 | 0 | 0.45 | 0.69 | 4.3 | – | inhibition [5]: 46%
2 | CCN(CC)Cc1cccc(COc2ccc3ccc(=O)oc3c2)c1 | 1.7 | – | – | 43 | – | 6.8 | – | – | inhibition at 10 µM [9]: 35%
3 | CCN(CCCCCCOc1ccc2c(C)c(C)c(=O)oc2c1)Cc1ccccc1 | 0.32 | 0.018 | 0.72 | – | 0.44 | 0.49 | 0.115 | – | Ratio IC50 [10]: 3; IC50 [11]: 2.1 µM
4 | Cc1cc2ccc(OCc3ccc(CN(C)Cc4ccc(C#N)cc4)cc3)cc2oc1=O | 7 | 0.017 | 1.7 | 15 | – | – | – | 11 | inhibition [13]: 16%
5 | CN(Cc1ccccc1)Cc1ccc(COc2ccc3c(CO)cc(=O)oc3c2)cc1.Cl | – | – | – | 0 | – | – | – | – | Papp A→B at 200 ug/ml [14]: 19.1 ×10⁻⁶ cm/s; Papp B→A at 200 ug/ml [15]: 33.8 ×10⁻⁶ cm/s; Activity [16]: Active; efflux ratio at 200 ug/ml [17]: 1.77; Activity [18]: Active
6 | COc1cc2c(cc1OC)C(=O)C(CC1CCN(Cc3ccccc3)CC1)C2 (stereo unspecified) [DONEPEZIL] | – | – | – | – | – | – | – | 0 | inhibition at 10 µM [19]: 0%
7 | CN(Cc1ccccc1)Cc1ccc(COc2ccc3ccc(=O)[nH]c3c2)cc1 | 0.49 | 4.5 | – | 10 | 1.5 | 1.7 | – | – | inhibition at 10 µM [9]: 29%; inhibition at 4 µM [20]: 14%
8 | CN(Cc1ccc(C#N)cc1)Cc1ccc(COc2ccc3ccc(=O)oc3c2)cc1 | 5.6 | 0.045 | 0.27 | 6 | 6 | 4.4 | – | 0 | –
9 | Cc1c(C)c2ccc(OCCCCCCN(C)Cc3ccccc3)cc2oc1=O | 0.095 | 0.321 | 1.7 | – | 0.34 | 0.67 | 0.191 | – | Ratio IC50 [10]: 0.3; IC50 [11]: 0.51 µM; IC50 [21]: 0.95 µM; Ki [22]: 0.08 µM
10 | Cc1c(C)c2ccc(OCCCCCNCc3ccccc3)cc2oc1=O | 0.94 | 0.029 | 0.5 | – | 0.3 | 1.8 | 0.39 | – | IC50 [11]: 2.2 µM; IC50 [21]: 0.95 µM
11 | CCN(CC)Cc1ccc(COc2ccc3ccc(=O)oc3c2)cc1 | 2.9 | – | – | 9 | – | 3.4 | – | – | inhibition at 10 µM [9]: 44%
12 | CN(Cc1ccc(COc2ccc3c(CO)cc(=O)oc3c2)cc1)Cc1cccc(Cl)c1 | 0.25 | 0.024 | 0.24 | 0 | 0.33 | 0.63 | 13 | – | inhibition [5]: 14%
13 | Cc1c(C)c2ccc(OCCCN(C)Cc3ccccc3)cc2oc1=O | 1.3 | 0.134 | 0.33 | 35 | 1 | 7.8 | – | 17 | –
14 | Cc1cc(=O)oc2cc(OCc3ccc(CN(C)Cc4ccc(C#N)cc4)cc3)ccc12 | 3.3 | 0.039 | 0.41 | 10 | 8.5 | – | – | 39 | inhibition [13]: 29%
15 | CN(Cc1ccccc1)Cc1ccc(COc2ccc3cc(C#N)c(=O)oc3c2)cc1 | 0.2 | – | – | 0 | – | 5.5 | – | – | inhibition at 10 µM [9]: 41%
